Experimental data published in patent US12702692B2, “Therapeutic use of calcium-activated chloride channel peptide activator” (CENTRE NATIONAL DE LA RECHERCHE SCIENTIFIQUE, priority 2020, dated 2026).

Experiment: Tear fluid secretion in dry eye model (surgical removal of exorbital lachrymal gland)
Type: in vivo, Sprague-Dawley rats
Conditions: N13ter 10 mM topical
Method: Sprague-Dawley rats (males, around 200 g) were purchased from Charles River and adapted one week before processing the experiment. Two-three rats per cage were housed in a controlled environment of 12 hours intervals of light/dark cycles and free access to food and water. Animal experiments were approved by the Animal Care and Use Committee of the University of Barcelona (CEEA) and the Departament de Territori i Sostenibilitat of Generalitat de Catalunya, Catalonia, Spain (319/19; 10935) and followed the ethical guidelines of the International Association for the Study of Pain.
N13ter (also named Nter 13 peptide or N13) ([…] (SEQ ID NO: 2)) and scramble ([…] (SEQ ID NO: 7)) peptides were purchased from GenScript Biotech (Leiden, Netherlands) and provided by CNRS. Both peptides were dissolved in Phosphate Buffered Saline (PBS) at 10 mM and used for topical ocular application (5 ul per eye).
Tear fluid secretion (tearing rate) was measured using phenol red threads (Zone-Quick, Menicon, Nagoya, Japan) placed on the lower eyelid for 30 s without topical anesthesia (Trost, 2007; Acosta 2013). Tearing rate was determined with an accuracy of ±0.5 mm by measurement of the length of the red portion of the thread.
To establish a dry eye model, a similar procedure to those previously described was used (Callejo 2015, Pain; 156(3):483-495, Kovacs, 2016, Pain.; 157(2):399-417). Rats were intraperitoneally anaesthetized with ketamine/xylacine (80:10 mg/kg). […] Tear fluid secretion was measured in both eyes before (basal) and once a week at 1, 2, 3 and 4 weeks after surgery using phenol red threads (Zone-Quick, Menicon, Nagoya, Japan) placed on the lower eyelid for 30 s without topical anesthesia (Trost, 2007; Acosta 2013). Tearing rate was determined with an accuracy of ±0.5 mm by measurement of the length of the red portion of the thread. After tearing rate measurement on week 4, animals were divided in two groups and a solution containing one of the peptides (N13ter or PBS) was topically applied to the ocular surface (5 μl) and tearing rate was measured at 1, 3, 6, 12 and 24 h. […]

## LARRSPRSSDGKL (SEQ ID NO: 2) (amino acid residues between positions 30 to 42 of the human KCNE1 protein sequence) [N13ter]
  effect on tearing rate vs vehicle: statistically significant compared to vehicle group
  time to return to basal values: ≤ 24 h
n=14 eyes, 5 weeks basal 4.04±0.49 mm
  tearing rate at 3 h (peak): 6.54±0.78 mm
